Data from patent publication US20040063662A1, “Selenophene anti-tumor agents” (priority 1996, published 2004).

What was measured:
[1] = test system: MOLT-4; experiment: NCI human tumor cell panel: MOLT-4 (Leukemia); assay type: cell-based
[2] = test system: OVCAR-3; experiment: NCI human tumor cell panel: OVCAR-3 (Ovarian Cancer); assay type: cell-based
[3] = test system: RPMI-8226; experiment: NCI human tumor cell panel: RPMI-8226 (Leukemia); assay type: cell-based
[4] = test system: SNB-75; experiment: NCI human tumor cell panel: SNB-75 (CNS Cancer); assay type: cell-based
[5] = test system: TK-10; experiment: NCI human tumor cell panel: TK-10 (Renal Cancer); assay type: cell-based
[6] = test system: A498; experiment: NCI human tumor cell panel: A498 (Renal Cancer); assay type: cell-based
[7] = test system: SF-539; experiment: NCI human tumor cell panel: SF-539 (CNS Cancer); assay type: cell-based
[8] = test system: M14; experiment: NCI human tumor cell panel: M14 (Melanoma); assay type: cell-based
[9] = test system: IGROV1; experiment: NCI human tumor cell panel: IGROV1 (Ovarian Cancer); assay type: cell-based
[10] = test system: NCI-H23; experiment: NCI human tumor cell panel: NCI-H23 (Non-Small Cell Lung Cancer); assay type: cell-based
[11] = test system: LOX IMVI; experiment: NCI human tumor cell panel: LOX IMVI (Melanoma); assay type: cell-based
[12] = test system: SF-295; experiment: NCI human tumor cell panel: SF-295 (CNS Cancer); assay type: cell-based
[13] = test system: NCI-H522; experiment: NCI human tumor cell panel: NCI-H522 (Non-Small Cell Lung Cancer)
[14] = test system: SK-MEL-2; experiment: NCI human tumor cell panel: SK-MEL-2 (Melanoma); assay type: cell-based
[15] = test system: OVCAR-8; experiment: NCI human tumor cell panel: OVCAR-8 (Ovarian Cancer); assay type: cell-based
[16] = test system: UO-31; experiment: NCI human tumor cell panel: UO-31 (Renal Cancer); assay type: cell-based
[17] = test system: HCT-116; experiment: NCI human tumor cell panel: HCT-116 (Colon Cancer); assay type: cell-based
[18] = test system: ACHN; experiment: NCI human tumor cell panel: ACHN (Renal Cancer); assay type: cell-based
[19] = test system: SW-620; experiment: NCI human tumor cell panel: SW-620 (Colon Cancer); assay type: cell-based
[20] = test system: MDA-MB-435; experiment: NCI human tumor cell panel: MDA-MB-435 (Breast Cancer); assay type: cell-based
[21] = test system: NCI-H322M; experiment: cells; assay type: cell-based; conditions: Homo sapiens, read-out: Log10 TGI (converted)
[22] = test system: SK-MEL-5; experiment: NCI human tumor cell panel: SK-MEL-5 (Melanoma); assay type: cell-based
[23] = test system: U251; experiment: NCI human tumor cell panel: U251 (CNS Cancer); assay type: cell-based
[24] = test system: MCF7/ADR-RES; experiment: NCI human tumor cell panel: MCF7/ADR-RES (Breast Cancer); assay type: cell-based
[25] = test system: SK-MEL-28; experiment: NCI human tumor cell panel: SK-MEL-28 (Melanoma); assay type: cell-based
[26] = test system: NCI-H460; experiment: NCI human tumor cell panel: NCI-H460 (Non-Small Cell Lung Cancer); assay type: cell-based
[27] = test system: HT29; experiment: NCI human tumor cell panel: HT29 (Colon Cancer); assay type: cell-based
[28] = test system: BT-549; experiment: NCI human tumor cell panel: BT-549 (Breast Cancer); assay type: cell-based
[29] = test system: 786-0; experiment: NCI human tumor cell panel: 786-0 (Renal Cancer); assay type: cell-based
[30] = test system: MDA-N; experiment: NCI human tumor cell panel: MDA-N (Breast Cancer); assay type: cell-based
[31] = test system: A549/ATCC; experiment: NCI human tumor cell panel: A549/ATCC (Non-Small Cell Lung Cancer); assay type: cell-based
[32] = test system: EKVX; experiment: NCI human tumor cell panel: EKVX (Non-Small Cell Lung Cancer); assay type: cell-based
[33] = read-out: Log10 GI50 (converted)
[34] = read-out: Log10 TGI (converted)

OCc1ccc(-c2ccc(-c3ccc(CO)[se]3)s2)s1 [compound 688830]
GI50 ([1]; MOLT-4, read-out: Log10 GI50 (converted)): 38.9 µM
IC (TGI) ([1]; MOLT-4, read-out: Log10 TGI (converted)): > 100 µM
GI50 ([2]; OVCAR-3, read-out: Log10 GI50 (converted)): < 0.01 µM
IC (TGI) ([2]; OVCAR-3, read-out: Log10 TGI (converted)): 0.0562 µM
GI50 ([3]; RPMI-8226, read-out: Log10 GI50 (converted)): 37.2 µM
IC (TGI) ([3]; RPMI-8226, read-out: Log10 TGI): > 100 µM
GI50 ([4]; SNB-75, read-out: Log10 GI50 (converted)): 25.7 µM
IC (TGI) ([4]; SNB-75, read-out: Log10 TGI (converted)): > 100 µM
GI50 ([5]; TK-10, read-out: Log10 GI50 (converted)): < 0.01 µM
IC (TGI) ([5]; TK-10, read-out: Log10 TGI (converted)): 0.0372 µM
GI50 ([6]; A498, read-out: Log10 GI50 (converted)): < 0.01 µM
IC (TGI) ([6]; A498, read-out: Log10 TGI (converted)): 0.0245 µM
GI50 ([7]; SF-539, read-out: Log10 GI50 (converted)): 15.5 µM
IC (TGI) ([7]; SF-539, read-out: Log10 TGI (converted)): 36.3 µM
GI50 ([8]; M14, read-out: Log10 GI50 (converted)): 37.2 µM
IC (TGI) ([8]; M14, read-out: Log10 TGI (converted)): > 100 µM
GI50 ([9]; IGROV-1, IGROV1, read-out: Log10 GI50 (converted)): 0.0141 µM
IC (TGI) ([9]; IGROV-1, IGROV1, read-out: Log10 TGI (converted)): 0.174 µM
GI50 ([10]; NCI-H23, read-out: Log10 GI50 (converted)): 85.1 µM
IC (TGI) ([10]; NCI-H23, read-out: Log10 TGI (converted)): > 100 µM
GI50 [11, 33]: 13.5 µM
IC (TGI) [11, 34]: 27.5 µM
GI50 ([12]; SF-295, read-out: Log10 GI50 (converted)): 20.9 µM
IC (TGI) ([12]; SF-295, read-out: Log10 TGI (converted)): 56.2 µM
GI50 ([13]; NCI-H522, read-out: Log10 GI50 (converted)): > 100 µM
IC (TGI) ([13]; NCI-H522, read-out: Log10 TGI): > 100 µM
GI50 ([14]; SK-MEL-2, read-out: Log10 GI50 (converted)): 39.8 µM
IC (TGI) ([14]; SK-MEL-2, read-out: Log10 TGI (converted)): > 100 µM
GI50 ([15]; OVCAR-8, read-out: Log10 GI50 (converted)): 6.92 µM
IC (TGI) ([15]; OVCAR-8, read-out: Log10 TGI (converted)): 30.9 µM
GI50 ([16]; UO-31, read-out: Log10 GI50 (converted)): > 100 µM
IC (TGI) ([16]; UO-31, read-out: Log10 TGI (converted)): > 100 µM
GI50 ([17]; HCT-116, read-out: Log10 GI50 (converted)): 0.0275 µM
IC (TGI) ([17]; HCT-116, read-out: Log10 TGI (converted)): 17.4 µM
GI50 [18, 33]: 20.9 µM
IC (TGI) [18, 34]: > 100 µM
GI50 ([19]; SW-620, read-out: Log10 GI50 (converted)): 0.0398 µM
IC (TGI) ([19]; SW-620, read-out: Log10 TGI (converted)): 25.1 µM
GI50 ([20]; MDA-MB-435, read-out: Log10 GI50 (converted)): > 100 µM
IC (TGI) ([20]; MDA-MB-435, read-out: Log10 TGI (converted)): > 100 µM
IC (TGI) [21]: 20 µM
GI50 ([22]; SK-MEL-5, read-out: Log10 GI50 (converted)): 36.3 µM
IC (TGI) ([22]; SK-MEL-5, read-out: Log10 TGI (converted)): > 100 µM
GI50 ([23]; U-251, U251, read-out: Log10 GI50 (converted)): 0.0832 µM
IC (TGI) ([23]; U-251, U251, read-out: Log10 TGI (converted)): 20.9 µM
GI50 [24, 33]: 12.3 µM
IC (TGI) [24, 34]: > 100 µM
GI50 ([25]; SK-MEL-28, read-out: Log10 GI50 (converted)): > 100 µM
IC (TGI) ([25]; SK-MEL-28, read-out: Log10 TGI (converted)): > 100 µM
GI50 ([26]; NCI-H460, read-out: Log10 GI50 (converted)): 0.017 µM
IC (TGI) ([26]; NCI-H460, read-out: Log10 TGI (converted)): 0.646 µM
GI50 ([27]; HT-29, HT29, read-out: Log10 GI50 (converted)): 0.224 µM
IC (TGI) ([27]; HT-29, HT29, read-out: Log10 TGI (converted)): 43.7 µM
GI50 ([28]; BT-549, read-out: Log10 GI50 (converted)): > 100 µM
IC (TGI) ([28]; BT-549, read-out: Log10 TGI (converted)): > 100 µM
GI50 ([29]; 786-0, read-out: Log10 GI50 (converted)): 6.46 µM
IC (TGI) ([29]; 786-0, read-out: Log10 TGI (converted)): 22.9 µM
GI50 [30, 33]: 97.7 µM
IC (TGI) [30, 34]: > 100 µM
GI50 [31, 33]: 6.03 µM
IC (TGI) [31, 34]: 33.1 µM
GI50 [32, 33]: 19.5 µM
IC (TGI) [32, 34]: 66.1 µM
